{
  "source": "patent US9745305B2",
  "about": "“Modulators of methyl modifying enzymes, compositions and uses thereof” (Constellation Pharmaceuticals, Inc., priority 2013, dated 2017)",
  "key": {"EZH2": {"target": "EZH2 (Homo sapiens, UniProt Q15910)", "sequence (Q15910 whole entry)": "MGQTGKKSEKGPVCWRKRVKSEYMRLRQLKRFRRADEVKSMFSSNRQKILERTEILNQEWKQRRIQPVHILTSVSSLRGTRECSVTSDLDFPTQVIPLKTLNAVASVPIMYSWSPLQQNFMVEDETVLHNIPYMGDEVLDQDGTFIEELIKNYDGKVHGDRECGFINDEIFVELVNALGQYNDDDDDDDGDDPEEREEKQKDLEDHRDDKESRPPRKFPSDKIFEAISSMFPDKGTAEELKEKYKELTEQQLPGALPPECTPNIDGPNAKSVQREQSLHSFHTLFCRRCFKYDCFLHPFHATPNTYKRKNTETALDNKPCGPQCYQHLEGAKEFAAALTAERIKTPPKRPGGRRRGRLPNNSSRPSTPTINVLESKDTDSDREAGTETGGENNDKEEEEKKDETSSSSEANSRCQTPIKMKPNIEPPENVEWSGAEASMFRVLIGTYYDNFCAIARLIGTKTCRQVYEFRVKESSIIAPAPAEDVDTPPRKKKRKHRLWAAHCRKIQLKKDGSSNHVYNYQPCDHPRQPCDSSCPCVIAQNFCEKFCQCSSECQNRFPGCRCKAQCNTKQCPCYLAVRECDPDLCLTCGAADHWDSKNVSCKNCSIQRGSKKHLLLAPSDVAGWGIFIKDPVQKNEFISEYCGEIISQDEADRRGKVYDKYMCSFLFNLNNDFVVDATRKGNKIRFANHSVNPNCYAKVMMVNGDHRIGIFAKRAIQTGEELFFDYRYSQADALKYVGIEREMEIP", "sequence (O75530 whole entry partner)": "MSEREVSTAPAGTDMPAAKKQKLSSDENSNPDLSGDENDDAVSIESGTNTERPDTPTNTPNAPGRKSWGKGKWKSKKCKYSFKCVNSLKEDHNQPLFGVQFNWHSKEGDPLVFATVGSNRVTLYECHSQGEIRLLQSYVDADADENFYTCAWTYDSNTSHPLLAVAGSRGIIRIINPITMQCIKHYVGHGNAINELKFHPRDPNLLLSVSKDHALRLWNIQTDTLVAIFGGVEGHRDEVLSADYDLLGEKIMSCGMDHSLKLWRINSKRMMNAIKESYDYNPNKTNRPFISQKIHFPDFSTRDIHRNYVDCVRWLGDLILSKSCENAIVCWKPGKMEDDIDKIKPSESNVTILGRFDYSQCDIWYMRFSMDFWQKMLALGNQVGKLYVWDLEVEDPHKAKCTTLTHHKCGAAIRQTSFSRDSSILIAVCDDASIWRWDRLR", "sequence (Q15022 whole entry partner)": "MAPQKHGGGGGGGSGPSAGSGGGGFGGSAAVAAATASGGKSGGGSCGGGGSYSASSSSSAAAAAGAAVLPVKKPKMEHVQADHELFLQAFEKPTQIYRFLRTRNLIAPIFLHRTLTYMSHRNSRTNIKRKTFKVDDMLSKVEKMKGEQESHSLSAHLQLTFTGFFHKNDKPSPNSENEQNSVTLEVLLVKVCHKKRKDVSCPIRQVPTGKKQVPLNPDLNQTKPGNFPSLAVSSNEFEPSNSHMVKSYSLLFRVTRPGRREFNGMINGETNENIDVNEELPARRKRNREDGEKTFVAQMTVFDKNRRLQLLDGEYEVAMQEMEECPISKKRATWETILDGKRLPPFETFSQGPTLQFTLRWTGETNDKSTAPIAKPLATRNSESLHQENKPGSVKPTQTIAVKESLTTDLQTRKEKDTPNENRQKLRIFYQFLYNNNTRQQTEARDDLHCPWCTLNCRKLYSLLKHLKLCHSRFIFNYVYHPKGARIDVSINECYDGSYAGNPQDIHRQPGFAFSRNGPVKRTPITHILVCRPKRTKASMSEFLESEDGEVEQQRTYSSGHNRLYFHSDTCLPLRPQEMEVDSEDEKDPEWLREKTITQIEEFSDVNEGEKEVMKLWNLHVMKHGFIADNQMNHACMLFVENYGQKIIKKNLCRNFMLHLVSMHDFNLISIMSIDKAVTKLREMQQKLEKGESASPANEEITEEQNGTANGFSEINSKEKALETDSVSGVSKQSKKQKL", "experiment": "EZH2 Assay (3H SAM methyl transfer, rPRC2, FlashPlate)", "format": "biochemical", "details": "rPRC2, biotinylated oligonucleosomes, 0.2 μM 3H SAM, 2 nM EZH2", "procedure": "(§1) EZH2 Assay: Assays were carried out by mixing rPRC2 together with biotinylated oligonucleosome substrates in the presence of the radio-labeled enzyme co-factor, S-adenosyl-L-methionine (^3H SAM) (Perkin Elmer) and monitoring the enzymatically mediated transfer of tritiated methyl groups from ^3H SAM to histone lysine residues. The amount of resulting tritiated methyl histone product was measured by first capturing the biotinylated oligonucleosomes in streptavidin (SAV) coated FlashPlates (Perkin Elmer), followed by a wash step to remove unreacted ^3H SAM, and then counting on a TopCount NXT 384 well plate scintillation counter (Perkin Elmer). The final assay conditions for EZH2 were as follows: 50 mM Tris Buffer pH 8.5, 1 mM DTT, 69 μM Brij-35 detergent, 5.0 mM MgCl2, 0.1 mg/mL BSA, 0.2 μM ^3H SAM, 0.2 μM biotinylated oligonucleosomes, 3.6 μM H3K27me3 peptide and 2 nM EZH2.\n(§2) Compound IC50 measurements were obtained as follows: Compounds were first dissolved in 100% DMSO as 10 mM stock solutions. Ten point dose response curves were generated by dispensing varying amounts of the 10 mM compound solution in 10 wells of the 384 well plate (Echo; Labcyte), pure DMSO was then used to backfill the wells to insure all wells have the same amount of DMSO. A 12.5 μL volume of the HMT enzyme, H3K27me3 peptide and oligonucleosome substrate in assay buffer was added to each well of the assay plate using a Multidrop Combi (ThermoFisher). Compounds were pre-incubated with the enzyme for 20 min, followed by initiation of the methyltransferase reaction by addition of 12.5 μL of ^3H SAM in assay buffer (final volume=25 μL). The final concentrations of compounds ranged from a top default concentration of 80 μM down to 0.16 μM in ten 2-fold dilution steps. Reactions were carried out for 60 minutes and quenched with 20 μL per well of 1.96 mM SAH, 50 mM Tris pH 8.5, 200 mM EDTA. Stopped reactions were transferred to SAV coated Flashplates (Perkin Elmer), incubated for 120 min, washed with a plate washer, and then read on the TopCount NXT (1.0 min/well) to measure the amount of methyl histone product formed during the reaction. The amount of methyl histone product was compared with the amount of product formed in the 0% and 100% inhibition control wells allowing the calculation of % Inhibition in the presence of the individual compounds at various concentrations. IC50's were computed using a 4 parameter fit non-linear curve fitting software package (XLFIT, part of the database package, ActivityBase (IDBS)) where the four parameters were IC50, Hill slope, pre-transitional baseline (0% INH), and post-transitional baseline (100% INH); with the latter two parameters being fixed to zero and 100%, respectively, by default."}, "Y641N EZH2": {"target": "Y641N EZH2 (Homo sapiens, UniProt Q15910, Y641N)", "sequence (Q15910 whole entry Y641N)": "as the sequence (Q15910 whole entry) above, with Y641N counted along it", "sequence (O75530 whole entry partner)": "as the sequence (O75530 whole entry partner) above", "sequence (Q15022 whole entry partner)": "as the sequence (Q15022 whole entry partner) above", "experiment": "Assay for Y641N EZH2 (as the EZH2 assay, H3K27Me2 oligonucleosomes as substrate)", "format": "biochemical", "details": "Y641N EZH2 mutant, reconstituted H3K27Me2 oligonucleosomes as substrate", "procedure": "as §1, §2\nAssay for Y641N EZH2 was performed as above using reconstituted H3K27Me2 oligonucleosomes as substrate."}, "[1]": {"system": "H3K27me3 mark in Hela cells expressing wild type EZH2", "experiment": "H3K27me3 MSD Hela Assay", "format": "cell-based", "details": "read-out: H3K27me3_MSD_HeLa (EC50)", "procedure": "H3K27me3 MSD Hela Assay. Trypsinized HeLa cells were counted and diluted in 10% DMEM (Life Technologies, Cat. #10569) to 5000 cells/75 μL. Seventy-five μL of cells were place in each well of a 96-well flat-bottomed plate and incubated at 37° C. for 4 hours. Twenty-five μL of test compound (at various concentrations) was added to the cells and incubation continued at 37° C. for 96 hours. Media was then removed and the cells rinsed once with ice cold PBS. Forty μL of ice-cold MSD Buffer AT (10 mM HEPES, pH 7.9, 5 mM MgCl2, 0.25M sucrose, Benzonase (1:10000), 1% Triton X-100 supplemented with fresh 1× Protease Inhibitor cocktail and 1 mM 4-(2-Aminoethyl)benzenesulfonyl fluoride hydrochloride (AEBSF)) was added to each well and the plates placed on ice for 30 minutes. Ten μL of 5M NaCl was then added to each well and incubation on ice continued for another 15 minutes. The material in each well was suspended pipetting up and down and then transferred to a new 96 well plate. The emptied wells were rinsed with 150 uL ice-cold 20 mM Tris pH 7.5, 1 mM EDTA, 1 mM EGTA, supplemented with fresh 1× Protease Inhibitor cocktail and 1 mM AEBSF (“NO salt NO detergent buffer) and transferred to the respective wells in the new plate. Three hundred μL of NO Salt NO detergent buffer was then added to each well of lysates and the plates frozen at −80° C.\nOn the same day, an appropriate number of MSD standard bind 96-well plates were coated with 30 μL/well of total H3 capture antibody (Millipore, Cat # MAB3422) at 1 μg/mL concentration in PBS. The antibody solution was evenly distributed first by tapping gently on the sides of the plates and then by shaking the plates for a few minutes at 1000 rpm. Antibody coated plates were stored at 4° C. overnight.\nThe next day the lysates are thawed to RT. The antibody coated MSD plates are washed 3× with TBS-T (Tris-buffered saline (Fisher Scientific, Cat #BP2471-1)+0.2% Tween-20). One-hundred fifty μL of 5% Blocker A in TBS-T is added to each well. The wells are covered and shaken on a shaker at RT for one hour. The Blocker A step is repeated a second time. After removing the blocker, 25 μL of cell lysate is transferred into each antibody coated well. The plates are shaken for 2 hours at RT, the lysate removed and the plates again washed with Blocker A in TBS-T. Twenty-five μL of appropriate freshly prepared antibody mix (including both primary and secondary antibodies) is added to each well and the plates shaken for 1 hour at RT.\nBoth H3 antibodies were obtained from Cell Signalling (Cat #s 4499 and 9733). The goat anti-rabbit antibody was obtained from Meso-Scale Discovery (Cat #R32AB-1).\nThe antibody mix was then removed and the wells washed with Blocker A. One hundred-fifty μL of freshly prepared 1×MSD Read Buffer (Meso-Scale Discovery; Cat #R927C-2) was then added to each well and the plates read on a MSD Sector 2400 Plate Reader.\nData was analyzed using Assay Assistant (Constellation Pharmaceuticals In-house product) and Activity Base (IDBS Ltd, Surrey, UK) template. Data files were imported to Assay Assistant and assay conditions were specified. A unique Analysis ID was created and the data files exported to Activity Base. An analysis template was created on Activity Base to measure dose-dependent inhibition of H3K27me3 mark and cell viability respectively. Readout of DMSO wells were used to normalize the data. Resulting curves were fitted using Activity base software Model 205 (IDBS Ltd, Surrey, UK). The data was checked for quality, validated and integrated in excel format using SARview (IDBS Ltd, Surrey, UK)."}},
  "note": "Like-named read-outs stand apart in the source and are kept apart here.",
  "data": [
    {"smiles": "COc1cc(C)[nH]c(=O)c1CNC(=O)c1c(C)c(C(C)N(C)S(C)(=O)=O)n2ncccc12", "note": "(racemic) [Compound 103, (±)-N-((4-methoxy-6-methyl-2-oxo-1,2-dihydropyridin-3-yl)methyl)-6-methyl-7-(1-(N-methylmethylsulfonamido)ethyl)pyrrolo[1,2-b]pyridazine-5-carboxamide]", "values": [
      {"measurement": "IC50", "setting": "EZH2", "result": "< 100", "unit": "nM"},
      {"measurement": "IC50", "setting": "Y641N EZH2", "result": "100 to 1000", "unit": "nM"},
      {"measurement": "EC50", "setting": "[1]; Homo sapiens, HeLa, 96 h", "result": "400 to 2000", "unit": "nM"}
    ]},
    {"smiles": "COc1cc(C)[nH]c(=O)c1CNC(=O)c1c(C)c(C(C)NS(C)(=O)=O)n2ncccc12", "note": "(racemic) [Compound 112, (±)-N-((4-methoxy-6-methyl-2-oxo-1,2-dihydropyridin-3-yl)methyl)-6-methyl-7-(1-(methylsulfonamido)ethyl)pyrrolo[1,2-b]pyridazine-5-carboxamide]", "values": [
      {"measurement": "IC50", "setting": "EZH2", "result": "< 100", "unit": "nM"},
      {"measurement": "IC50", "setting": "Y641N EZH2", "result": "100 to 1000", "unit": "nM"},
      {"measurement": "EC50", "setting": "[1]; Homo sapiens, HeLa, 96 h", "result": "2000 to 10000", "unit": "nM"}
    ]},
    {"smiles": "COc1cc(C)[nH]c(=O)c1CNC(=O)c1c(C)c(C(C)C2CC2)n2ncccc12", "note": "(racemic) [Compound 102, (±)-7-(1-cyclopropylethyl)-N-((4-methoxy-6-methyl-2-oxo-1,2-dihydropyridin-3-yl)methyl)-6-methylpyrrolo[1,2-b]pyridazine-5-carboxamide]", "values": [
      {"measurement": "IC50", "setting": "EZH2", "result": "< 100", "unit": "nM"},
      {"measurement": "IC50", "setting": "Y641N EZH2", "result": "< 100", "unit": "nM"},
      {"measurement": "EC50", "setting": "[1]; Homo sapiens, HeLa, 96 h", "result": "400 to 2000", "unit": "nM"}
    ]},
    {"smiles": "CCN(C(C)c1c(C)c(C(=O)NCc2c(OC)cc(C)[nH]c2=O)c2cccnn12)S(C)(=O)=O", "note": "(single isomer, unassigned) [Compound 108, (R or S)-7-(1-(N-ethylmethylsulfonamido)ethyl)-N-((4-methoxy-6-methyl-2-oxo-1,2-dihydropyridin-3-yl)methyl)-6-methylpyrrolo[1,2-b]pyridazine-5-carboxamide]", "values": [
      {"measurement": "IC50", "setting": "EZH2", "result": "< 100", "unit": "nM"},
      {"measurement": "IC50", "setting": "Y641N EZH2", "result": "100 to 1000", "unit": "nM"},
      {"measurement": "EC50", "setting": "[1]; 96 hours", "result": "400 to 2000", "unit": "nM"}
    ]},
    {"smiles": "COc1cc(C)[nH]c(=O)c1CNC(=O)c1c(C)c(-c2c(C)noc2C)n2ncccc12", "note": "[Compound 114, 7-(3,5-dimethylisoxazol-4-yl)-N-((4-methoxy-6-methyl-2-oxo-1,2-dihydropyridin-3-yl)methyl)-6-methylpyrrolo[1,2-b]pyridazine-5-carboxamide]", "values": [
      {"measurement": "IC50", "setting": "EZH2", "result": "< 100", "unit": "nM"},
      {"measurement": "IC50", "setting": "Y641N EZH2", "result": "< 100", "unit": "nM"},
      {"measurement": "EC50", "setting": "[1]; Homo sapiens, HeLa, 96 h", "result": "< 400", "unit": "nM"}
    ]},
    {"smiles": "COc1cc(C)[nH]c(=O)c1CNC(=O)c1c(C)c(C(C)c2ccn(C)c(=O)c2)n2ncccc12", "note": "(stereo not shown) [Compound 110, N-((4-methoxy-6-methyl-2-oxo-1,2-dihydropyridin-3-yl)methyl)-6-methyl-7-(1-(1-methyl-2-oxo-1,2-dihydropyridin-4-yl)ethyl)pyrrolo[1,2-b]pyridazine-5-carboxamide]", "values": [
      {"measurement": "IC50", "setting": "EZH2", "result": "< 100", "unit": "nM"},
      {"measurement": "IC50", "setting": "Y641N EZH2", "result": "100 to 1000", "unit": "nM"},
      {"measurement": "EC50", "setting": "[1]; Homo sapiens, HeLa, 96 h", "result": "2000 to 10000", "unit": "nM"}
    ]},
    {"smiles": "COc1cc(C)[nH]c(=O)c1CNC(=O)c1c(C)c(C(C)c2ccccc2)n2ncccc12", "note": "(single isomer, unassigned) [Compound 106, (R or S)-N-((4-methoxy-6-methyl-2-oxo-1,2-dihydropyridin-3-yl)methyl)-6-methyl-7-(1-phenylethyl)pyrrolo[1,2-b]pyridazine-5-carboxamide]", "values": [
      {"measurement": "EC50", "setting": "[1]; 96 hours", "result": "< 400", "unit": "nM"}
    ]},
    {"smiles": "CCN(C(C)c1c(C)c(C(=O)NCc2c(OC)cc(C)[nH]c2=O)c2cccnn12)S(C)(=O)=O", "note": "(single isomer, unassigned) [Compound 107, (R or S)-7-(1-(N-ethylmethylsulfonamido)ethyl)-N-((4-methoxy-6-methyl-2-oxo-1,2-dihydropyridin-3-yl)methyl)-6-methylpyrrolo[1,2-b]pyridazine-5-carboxamide]", "values": [
      {"measurement": "IC50", "setting": "EZH2", "result": "< 100", "unit": "nM"},
      {"measurement": "IC50", "setting": "Y641N EZH2", "result": "100 to 1000", "unit": "nM"},
      {"measurement": "EC50", "setting": "[1]; 96 hours", "result": "2000 to 10000", "unit": "nM"}
    ]},
    {"smiles": "COc1cc(C)[nH]c(=O)c1CNC(=O)c1c(C)c(C(C)c2cccnc2)n2ncccc12", "note": "(racemic) [Compound 113, (±)-N-((4-methoxy-6-methyl-2-oxo-1,2-dihydropyridin-3-yl)methyl)-6-methyl-7-(1-(pyridin-3-yl)ethyl)pyrrolo[1,2-b]pyridazine-5-carboxamide]", "values": [
      {"measurement": "IC50", "setting": "EZH2", "result": "< 100", "unit": "nM"},
      {"measurement": "IC50", "setting": "Y641N EZH2", "result": "< 100", "unit": "nM"},
      {"measurement": "EC50", "setting": "[1]; Homo sapiens, HeLa, 96 h", "result": "< 400", "unit": "nM"}
    ]}
  ]
}
